Tested on: miR-124
Assay: Induction of miR-124 expression in PBMC cells (qPCR)
Format: cell-based
Conditions: Homo sapiens, 72 h, 0.1 μM compound, human PBMCs stimulated with PMA/ionomycin, miR-191 reference gene, read-out: miR-124 expression, Fold change vs DMSO
Description: This study evaluated the ability of the compound of the present invention to influence miR-124 transcriptional activity in vitro. The experiment analyzed miR-124 expression in human PBMCs (Sailybio) using quantitative PCR (qPCR).
Thawed human PBMCs (1 mL) were added to 19 mL of culture medium (RPMI1640+10% hFBS+1‰ 2-mercaptoethanol) and the PBMCs were incubated in a cell culture incubator for 30 minutes. The PBMCs were collected and the cells (3.0*10^6 cells/well/3 mL) were resuspended in medium containing PMA (10 ng/mL; Invivogen) and ionomycin (200 ng/mL; Invivogen). The cells were incubated in a 6-well plate for 48 hours. Diluted compound was added to the cells to achieve a final concentration of 0.1 μM. After 72 hours, the samples were centrifuged and the cells were collected.
Total miRNA was extracted from the cells using the MiPure Cell/Tissue miRNA Kit (Vazyme) according to the manufacturer's instructions, followed by purification. The purified samples were treated with genomic DNA elimination buffer, and reverse transcription was performed using a GeneAmp PCR System. The resulting cDNA was subjected to quantitative real-time PCR (qPCR) analysis on a QuantStudio™ 7 Flex Real-Time PCR System. Data analysis was performed using the QuantStudio 7 software with default settings to automatically determine Ct values, and the results were exported. In this assay, miR-191 was used as the reference gene, and the DMSO-treated group served as the control. The relative expression of miR-124 was calculated using the following formula: […]

Row | Compound | fold induction at 0.1 µM
1 | FC(F)(F)Oc1ccc(Nc2nc3cc(Br)cc(Cl)c3n3ccnc23)cc1 [Compound B23, 7-bromo-9-Chloro-N-(4-(trifluoromethoxy)phenyl)imidazolo [1,2-a]quinoxalin-4-amine] | 25.2
2 | FC(F)(F)Oc1ccc(Nc2nc3cc(Cl)c(Cl)cc3n3ccnc23)cc1 [Compound B24, 7,8-dichloro-N-(4-(trifluoromethoxy)phenyl)imidazolo [1,2-a]quinoxalin-4-amine] | 26.7
3 | Fc1cc2nc(Nc3ccc(OC(F)(F)F)cc3)c3nccn3c2cc1Cl [Compound B25, 8-chloro-7-fluoro-N-(4-(trifluoromethoxy)phenyl)imidazolo [1,2-a]quinoxalin-4-amine] | 23.4
4 | Fc1cc(F)c2c(c1)nc(Nc1ccc(OC(F)(F)F)cc1)c1nccn12 [Compound B30, 7,9-difluoro-N-(4-(trifluoromethoxy)phenyl)imidazolo [1,2-a]quinoxalin-4-amine] | 22.5
5 | Fc1cc(Cl)cc2nc(Nc3ccc(OC(F)(F)F)cc3)c3nccn3c12 [Compound B31, 7-chloro-9-fluoro-N-(4-(trifluoromethoxy)phenyl)imidazolo [1,2-a]quinoxalin-4-amine] | 24.4
6 | Fc1cc(Br)cc2nc(Nc3ccc(OC(F)(F)F)cc3)c3nccn3c12 [Compound B32, 7-bromo-9-fluoro-N-(4-(trifluoromethoxy)phenyl)imidazolo [1,2-a]quinoxalin-4-amine] | 19.7
7 | FC(F)(F)c1ccc(Nc2nc3cccc(Cl)c3n3ccnc23)cc1 [Compound B49, 9-chloro-N-(4-(trifluoromethyl)phenyl)imidazolo [1,2-a]quinoxalin-4-amine] | 32
8 | FC(F)(F)Sc1ccc(Nc2nc3cccc(Cl)c3n3ccnc23)cc1 [Compound B50, 9-chloro-N-(4-(trifluoromethylthio)phenyl)imidazolo [1,2-a]quinoxalin-4-amine] | 21.3
9 | FC1(F)Oc2ccc(Nc3nc4cccc(Cl)c4n4ccnc34)cc2O1 [Compound B52, 9-chloro-N-(2,2-difluorobenzo[d] [1,3]dihydroxy-5-yl) imidazolo[1,2-a]quinoxalin-4-amine] | 30.2
10 | Fc1cc(Nc2nc3cccc(Cl)c3n3ccnc23)ccc1C(F)(F)F [Compound B53, 9-chloro-N-(3-Fluoro-4-(trifluoromethyl)phenyl)imidazolo [1,2-a]quinoxalin-4-amine] | 36.8
11 | Fc1cc(Nc2nc3cccc(Cl)c3n3ccnc23)ccc1OC(F)(F)F [Compound B55, 9-chloro-N-(3-Fluoro-4-(trifluoromethoxy)phenyl)imidazolo [1,2-a]quinoxalin-4-amine] | 36.3
12 | FC(F)(F)Oc1ccc(Nc2nc3cccc(Cl)c3n3ccnc23)cc1Cl [Compound B56, 9-chloro-N-(3-chloro-4-(trifluoromethoxy)phenyl)imidazolo [1,2-a]quinoxalin-4-amine] | 40.7
13 | FC(F)Oc1ccc(Nc2nc3cccc(Cl)c3n3ccnc23)cc1 [Compound B59, 9-chloro-N-(4-(difluoromethoxy)phenyl)imidazolo [1,2-a]quinoxalin-4-amine] | 25.4
14 | FS(F)(F)(F)(F)c1ccc(Nc2nc3cccc(Cl)c3n3ccnc23)cc1 [Compound B60, 9-chloro-N-(4-(thiopentafluoride)phenyl)imidazolo[1,2-a]quinoxalin-4-amine] | 24.8
15 | CSc1ccc(Nc2nc3cccc(Cl)c3n3ccnc23)cc1 [Compound B61, 9-chloro-N-(4-(methylthio)phenyl) imidazolo [1,2-a]quinoxalin-4-amine] | 19.9
16 | FC(F)(F)c1ccc(Nc2nc3cccc(Cl)c3n3ccnc23)nc1 [Compound B67, 9-chloro-N-(5-(trifluoromethyl)pyridin-2-yl) imidazolo [1,2-a]quinoxalin-4-amine] | 23.4
17 | Fc1cccc2nc(Nc3ccc4c(c3)OC(F)(F)O4)c3nccn3c12 [Compound B75, 9-fluoro-N-(2,2-difluorobenzo[d] [1,3]dihydroxy-5-yl) imidazolo[1,2-a] quinoxalin-4-amine] | 29.5
18 | Fc1cc(Nc2nc3cccc(F)c3n3ccnc23)ccc1OC(F)(F)F [Compound B76, 9-fluoro-N-(3-fluoro-4-(trifluoromethoxy)phenyl) imidazolo[1,2-a] quinoxalin-4-amine] | 18.5
19 | Fc1cccc2nc(Nc3ccc(OC(F)(F)F)c(Cl)c3)c3nccn3c12 [Compound B77, 9-fluoro-N-(3-chloro-4-(trifluoromethoxy)phenyl) imidazolo[1,2-a]quinoxalin-4-amine] | 23.1
20 | Fc1cccc2nc(Nc3ccc(C(F)(F)F)cc3)c3nccn3c12 [Compound B78, 9-fluoro-N-(4-(trifluoromethyl)phenyl) imidazolo[1,2-a] quinoxalin-4-amine] | 14.9
21 | Fc1cc(Nc2nc3cccc(F)c3n3ccnc23)ccc1C(F)(F)F [Compound B79, 9-fluoro-N-(3-fluoro-4-(trifluoromethyl)phenyl) imidazolo[1,2-a] quinoxalin-4-amine] | 22.3
22 | Fc1cccc2nc(Nc3ccc(C(F)(F)F)c(Cl)c3)c3nccn3c12 [Compound B80, 9-fluoro-N-(3-chloro-4-(trifluoromethyl)phenyl) imidazolo[1,2-a] quinoxalin-4-amine] | 17.2
23 | Fc1cc(Cl)cc2nc(Nc3ccc4c(c3)OC(F)(F)O4)c3nccn3c12 [Compound B87, 7-chloro-9-fluoro-N-(2,2-difluorobenzo[d] [1,3]dihydroxy-5-yl)imidazo[1,2-a] quinoxalin-4-amine] | 15.8
24 | Fc1cc(Nc2nc3cc(Cl)cc(F)c3n3ccnc23)ccc1OC(F)(F)F [Compound B88, 7-chloro-9-fluoro-N-(3-fluoro-4-(trifluoromethoxy)phenyl) imidazolo[1,2-a] quinoxalin-4-amine] | 20.1
25 | Fc1cc(Cl)cc2nc(Nc3ccc(OC(F)(F)F)c(Cl)c3)c3nccn3c12 [Compound B89, 7-chloro-9-fluoro-N-(3-chloro-4-(trifluoromethoxy)phenyl) imidazolo[1,2-a] quinoxalin-4-amine] | 22.3
26 | Fc1cc(Cl)cc2nc(Nc3ccc(C(F)(F)F)cc3)c3nccn3c12 [Compound B90, 7-chloro-9-fluoro-N-(4-(trifluoromethyl)phenyl) imidazolo[1,2-a] quinoxalin-4-amine] | 24.9
27 | Fc1cc(Nc2nc3cc(Cl)cc(F)c3n3ccnc23)ccc1C(F)(F)F [Compound B91, 7-chloro-9-fluoro-N-(3-fluoro-4-(trifluoromethyl)phenyl) imidazolo[1,2-a] quinoxalin-4-amine] | 25.7
28 | Fc1cc(Cl)cc2nc(Nc3ccc(C(F)(F)F)c(Cl)c3)c3nccn3c12 [Compound B92, 7-chloro-9-fluoro-N-(3-chloro-4-(trifluoromethyl)phenyl) imidazolo[1,2-a] quinoxalin-4-amine] | 27.1
29 | FC1(F)Oc2ccc(Nc3nc4cc(Cl)cc(Cl)c4n4ccnc34)cc2O1 [Compound B93, 7,9-dichloro-N-(2,2-difluorobenzo [d][1,3]dihydroxy-5-yl) imidazolo[1,2-a] quinoxalin-4-amine] | 19.1

Source: patent publication US20260232662A1, “MIR-124 INDUCER, AND PREPARATION METHOD THEREFOR AND USE THEREOF” (NANJING SYNNOCARE PHARMACEUTICAL TECHNOLOGY CO., LTD., priority 2023, published 2026)
